# Reference: patent US8426353B2, “Process for preparing polyurea microcapsules” (Firmenich SA, priority 2008, dated 2013)
# Where two headings read alike, the source gives them in different places.
# Key:
# [1] = GC-MS analysis of perfume leaked out of the capsules during one month storage in concentrated fabric softener; format: physicochemical; settings: for Percentage of ingredient having leaked out of the capsules during one month storage, % In fabric softener 37° C.: perfume of Example 6 encapsulated per Example 2, capsules at 1.25%; for Percentage of ingredient having leaked out of the capsules during one month storage, % In fabric softener 37° C. / Percentage of perfume having leaked out of the capsules upon one month storage, % In fabric softener at 37° C.: one month at 37° C.; for Percentage of perfume having leaked out of the capsules upon one month storage, % In fabric softener at 22° C. / Percentage of perfume having leaked out of the capsules upon one month storage, % In fabric softener at 37° C.: perfume of Example 9 encapsulated per Example 2, capsules at 1.25%; for Percentage of perfume having leaked out of the capsules upon one month storage, % In fabric softener at 22° C.: one month at 22° C.
# Experimental: The concentrated fabric softener base was prepared by admixing the ingredients listed in Table 4, in the amounts indicated.
# [2] = GC-MS analysis of perfume leaked out of the capsules during one month storage in concentrated liquid detergent; format: physicochemical; settings: for Percentage of ingredient having leaked out of the capsules during one month storage, % In concentrated Liquid Detergent 22° C. / Percentage of ingredient having leaked out of the capsules during one month storage, % In concentrated Liquid Detergent 37° C.: perfume of Example 6 encapsulated per Example 2, capsules at 1.25% in Tide 2x Concentrated HE Free; for Percentage of ingredient having leaked out of the capsules during one month storage, % In concentrated Liquid Detergent 22° C. / Percentage of perfume having leaked out of the capsules upon one month storage, % In Concentrated Liquid Detergent at 22° C.: one month at 22° C.; for Percentage of ingredient having leaked out of the capsules during one month storage, % In concentrated Liquid Detergent 37° C. / Percentage of perfume having leaked out of the capsules upon one month storage, % In Concentrated Liquid Detergent at 37° C.: one month at 37° C.; for Percentage of perfume having leaked out of the capsules upon one month storage, % In Concentrated Liquid Detergent at 22° C. / Percentage of perfume having leaked out of the capsules upon one month storage, % In Concentrated Liquid Detergent at 37° C.: perfume of Example 9 encapsulated per Example 2, capsules at 1.25% in Tide 2x Concentrated HE Free
# From the text: The concentrated liquid detergent base was a commercially available Tide® 2× Concentrated HE Free of perfume & dye (trademark of Procter and Gamble, USA).
# The concentrated liquid detergent base was the commercially available Tide® 2× Concentrated HE Free of perfume & dye (trademark of Procter and Gamble, USA).
# [3] = LogP of the perfume ingredients
# [4] = ingredients of the perfume of Example 9 (Table 9)
# [5] = ingredients of the perfume of Example 6 (Table 1)
Compound,"Percentage of ingredient having leaked out of the capsules during one month storage, % In fabric softener 37° C. [1] [%]","Percentage of ingredient having leaked out of the capsules during one month storage, % In concentrated Liquid Detergent 22° C. [2] [%]","Percentage of ingredient having leaked out of the capsules during one month storage, % In concentrated Liquid Detergent 37° C. [2] [%]",LogP [3],"Percentage of perfume having leaked out of the capsules upon one month storage, % In fabric softener at 22° C. [1] [%]","Percentage of perfume having leaked out of the capsules upon one month storage, % In fabric softener at 37° C. [1] [%]","Percentage of perfume having leaked out of the capsules upon one month storage, % In Concentrated Liquid Detergent at 22° C. [2] [%]","Percentage of perfume having leaked out of the capsules upon one month storage, % In Concentrated Liquid Detergent at 37° C. [2] [%]","LogP [3, 4]","LogP [3, 5]"
"C=CCCC(=O)C1=CCCC(C)(C)C1 [Neobutenone ® alpha, 1-(5,5-dimethyl-1-cyclohexen-1-yl)-4-penten-1-one]",9,1,27,4.45,–,–,–,–,–,–
CC(C)=CC1CC(C)CCO1 (centres unmarked) [Rose oxide],–,–,–,–,8,68,8,92,3.58,–
"(1′R,E)-3,3-dimethyl-5-(2′,2′,3′-trimethyl-3′-cyclopenten-1′-yl)-4-penten-2-ol [Polysantol ®]",2,1,6,–,–,–,–,–,–,5.39
Terpenyl acetate,–,–,–,–,3,17,3,37,4.34,–

# Next, values leading:
"Percentage of ingredient having leaked out of the capsules during one month storage, % In fabric softener 37° C. [1] [%]","Percentage of ingredient having leaked out of the capsules during one month storage, % In concentrated Liquid Detergent 22° C. [2] [%]","Percentage of ingredient having leaked out of the capsules during one month storage, % In concentrated Liquid Detergent 37° C. [2] [%]",LogP [3],"Percentage of perfume having leaked out of the capsules upon one month storage, % In fabric softener at 22° C. [1] [%]","Percentage of perfume having leaked out of the capsules upon one month storage, % In fabric softener at 37° C. [1] [%]","Percentage of perfume having leaked out of the capsules upon one month storage, % In Concentrated Liquid Detergent at 22° C. [2] [%]","Percentage of perfume having leaked out of the capsules upon one month storage, % In Concentrated Liquid Detergent at 37° C. [2] [%]","LogP [3, 4]","LogP [3, 5]",Compound
–,–,–,–,6,10,6,80,2.85,–,"CC(=O)OC1CC2CC1C1CC=CC21 (centres unmarked) [Verdyl acetate, Verdyl Acetate]"
–,–,–,–,5,8,5,51,3.34,–,CCC(=O)OC1CC2CC1C1CC=CC21 (centres unmarked) [Verdyl propionate]
5,1,14,–,–,–,–,–,–,3.76,CC(=O)OC1CC2CC1C1CC=CC21 (centres unmarked) [Verdylate]
3,1,8,–,3,10,3,16,4.13,4.13,C/C=C/C(=O)C1C(C)C=CCC1(C)C (centres unmarked) [δ-Damascone]
